Usually MIC stands for the smallest concentration in the dilution series that meets the test's criterion for growth inhibition.

≈ marks a conversion by molar mass, not a printed value. Where two headings read alike, the source gives them in different places.

For one assay, the system named is M. tuberculosis H37Rv. Kind of assay: Tuberculostatic activity, Microplate Alamar Blue Assay (MIC). In kind it is cell-based, Mycobacterium tuberculosis. As to conditions: Mycobacterium tuberculosis, H37RV, read-out: MIC M. tuberculosis H37Rv.
Assay [1] deals with M. tuberculosis Spec. 192. The assay is described as above. In kind it is cell-based. The following applies: Mycobacterium tuberculosis, MABA, read-out: MIC M. tuberculosis Spec. 192 (sensitive to tuberculostatics).

Take `CC[C@@H](CO)NCCN[C@@H](CC)CO` [ethambutol(EMB), ethambutol, reference compound]: the MIC (in the assay with M. tuberculosis H37Rv (MABA); in assay [1]) was 2 µg/mL (≈ 9.79 µM) in each case.
Take `NNC(=O)c1ccncc1` [isoniazid (INH), isoniazid, reference compound]: the MIC (with M. tuberculosis H37Rv; in assay [1]) was 0.125 µg/mL (≈ 0.911 µM) throughout.
Regarding `CO[C@H]1/C=C/O[C@@]2(C)Oc3c(C)c(O)c4c(O)c(c(/C=N/N5CCN(C)CC5)c(O)c4c3C2=O)NC(=O)/C(C)=C\C=C\[C@H](C)[C@H](O)[C@@H](C)[C@@H](O)[C@@H](C)[C@H](OC(C)=O)[C@@H]1C` [rifampicin (RMP), rifampicin, reference compound], the MIC (in the assay on M. tuberculosis H37Rv (MABA); in assay [1]) was 1 µg/mL (≈ 1.22 µM) each time.
With `[H]/N=C(/N)N[C@H]1[C@H](O)[C@@H](O)[C@H](O[C@@H]2O[C@@H](C)[C@](O)(C=O)[C@H]2O[C@@H]2O[C@@H](CO)[C@H](O)[C@@H](O)[C@@H]2NC)[C@@H](N/C(N)=N\[H])[C@@H]1O` [streptomycin (SM), streptomycin, reference compound], the MIC (with M. tuberculosis H37Rv (MABA); in assay [1]) was 1 µg/mL (≈ 1.72 µM) each time.

These data come from article PMC10233829 (ACS Omega, 2023).
